According to ChEMBL document CHEMBL5463729, “Data for DCP probe BAY 1753011” (2023):

Columns and labels:
[1] = target: Histamine H2 receptor (Homo sapiens) (UniProt P25021); conditions: Compound concentration 10.0 uM
[2] = target: Ephrin type-B receptor 4 (Homo sapiens) (UniProt P54760); experiment: Inhibition of EphB4(h) at 10.0 µM in the Eurofins Kinase panel; conditions: Compound concentration 10.0 uM
[3] = target: STE20/SPS1-related proline-alanine-rich protein kinase (Homo sapiens) (UniProt Q9UEW8); experiment: Inhibition of STK39(h) at 10.0 µM in the Eurofins Kinase panel; conditions: Compound concentration 10.0 uM
[4] = target: Tyrosine-protein kinase TXK (Homo sapiens) (UniProt P42681); experiment: Inhibition of Txk(h) at 10.0 µM in the Eurofins Kinase panel; conditions: Compound concentration 10.0 uM
Oryctolagus cuniculus = species on record: Oryctolagus cuniculus; conditions: Compound concentration 10.0 uM
Vasopressin V2 receptor = Vasopressin V2 receptor (Homo sapiens, UniProt P30518); experiment: Inhibition of Vasopressin V2 at 10 µM in the Eurofins-Panlabs radioligand binding assay (Eurofins_assay_287610); parameters: ligand concentration 4 nM; conditions: Compound concentration 10.0 uM
Sequence of Vasopressin V2 receptor (P30518 whole entry): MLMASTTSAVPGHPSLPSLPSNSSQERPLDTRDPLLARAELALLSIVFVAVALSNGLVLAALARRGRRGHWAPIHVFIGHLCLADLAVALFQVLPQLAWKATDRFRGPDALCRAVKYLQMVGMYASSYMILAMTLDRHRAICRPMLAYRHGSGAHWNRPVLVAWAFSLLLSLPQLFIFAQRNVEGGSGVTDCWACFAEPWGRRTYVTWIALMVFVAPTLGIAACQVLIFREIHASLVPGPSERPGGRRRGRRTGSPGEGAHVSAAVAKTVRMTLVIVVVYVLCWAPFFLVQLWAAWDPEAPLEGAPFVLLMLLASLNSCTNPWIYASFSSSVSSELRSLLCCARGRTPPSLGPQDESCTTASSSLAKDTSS

[5] = target: Transient receptor potential cation channel subfamily M member 7 (Homo sapiens) (UniProt Q96QT4); experiment: Inhibition of ChaK1(h) at 10.0 µM in the Eurofins Kinase panel; conditions: Compound concentration 10.0 uM
[6] = target: Tyrosine-protein kinase Fes/Fps (Homo sapiens) (UniProt P07332); experiment: Inhibition of Fes(h) at 10.0 µM in the Eurofins Kinase panel; conditions: Compound concentration 10.0 uM
[7] = target: TRAF2 and NCK-interacting protein kinase (Homo sapiens) (UniProt Q9UKE5); experiment: Inhibition of TNIK(h) at 10.0 µM in the Eurofins Kinase panel; conditions: Compound concentration 10.0 uM
[8] = target: Fibroblast growth factor receptor 4 (Homo sapiens) (UniProt P22455); experiment: Inhibition of FGFR4(h) at 10.0 µM in the Eurofins Kinase panel; conditions: Compound concentration 10.0 uM
[9] = target: Cyclin-dependent kinase 5/CDK5 activator 1 (Homo sapiens) (UniProt Q00535+Q15078); experiment: Inhibition of CDK5/p25(h) at 10.0 µM in the Eurofins Kinase panel; type: protein-complex assay; conditions: Compound concentration 10.0 uM
[10] = target: Serine/threonine-protein kinase Nek1 (Homo sapiens) (UniProt Q96PY6); experiment: Inhibition of NEK1(h) at 10.0 µM in the Eurofins Kinase panel; conditions: Compound concentration 10.0 uM
Sequence of Serine/threonine-protein kinase Nek1 (Homo sapiens) (Q96PY6 whole entry): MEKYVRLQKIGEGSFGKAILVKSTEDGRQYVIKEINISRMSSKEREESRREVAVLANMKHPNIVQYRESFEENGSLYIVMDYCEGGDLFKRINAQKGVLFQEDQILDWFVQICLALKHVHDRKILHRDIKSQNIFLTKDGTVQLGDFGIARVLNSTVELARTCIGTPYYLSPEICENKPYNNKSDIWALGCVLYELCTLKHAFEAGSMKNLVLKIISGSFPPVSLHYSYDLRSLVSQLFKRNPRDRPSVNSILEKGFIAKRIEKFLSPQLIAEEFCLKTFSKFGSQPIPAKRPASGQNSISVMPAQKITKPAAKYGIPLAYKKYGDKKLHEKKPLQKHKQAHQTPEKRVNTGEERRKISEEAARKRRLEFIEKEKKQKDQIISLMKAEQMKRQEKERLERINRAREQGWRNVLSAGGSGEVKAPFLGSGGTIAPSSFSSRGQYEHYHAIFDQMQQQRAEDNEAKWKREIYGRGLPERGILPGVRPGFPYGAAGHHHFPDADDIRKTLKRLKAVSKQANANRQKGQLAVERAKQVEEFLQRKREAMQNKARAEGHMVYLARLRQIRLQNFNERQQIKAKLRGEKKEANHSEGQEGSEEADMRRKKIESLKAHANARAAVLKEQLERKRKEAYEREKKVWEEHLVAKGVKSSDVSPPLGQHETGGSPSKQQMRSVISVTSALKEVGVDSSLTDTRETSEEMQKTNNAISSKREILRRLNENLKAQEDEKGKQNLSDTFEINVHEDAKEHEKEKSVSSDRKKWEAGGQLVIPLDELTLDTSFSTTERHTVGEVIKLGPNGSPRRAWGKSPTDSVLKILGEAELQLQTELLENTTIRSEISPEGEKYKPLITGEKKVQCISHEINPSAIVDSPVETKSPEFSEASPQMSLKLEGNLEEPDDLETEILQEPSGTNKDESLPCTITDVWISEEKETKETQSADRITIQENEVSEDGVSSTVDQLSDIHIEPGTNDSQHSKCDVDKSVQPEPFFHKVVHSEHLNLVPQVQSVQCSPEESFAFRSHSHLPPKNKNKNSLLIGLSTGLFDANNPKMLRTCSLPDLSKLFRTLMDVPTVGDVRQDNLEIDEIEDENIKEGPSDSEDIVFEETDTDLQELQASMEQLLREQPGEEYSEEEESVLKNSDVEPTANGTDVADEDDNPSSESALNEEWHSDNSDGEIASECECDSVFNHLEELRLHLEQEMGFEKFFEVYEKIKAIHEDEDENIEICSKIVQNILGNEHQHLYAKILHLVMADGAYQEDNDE

Vasopressin V1a receptor = Vasopressin V1a receptor (Homo sapiens, UniProt P37288); experiment: Assay with bioluminescence detection (AVPR1). (The vasopressin receptor cells react to stimulation of the recombinantly expressed V1a receptors by intracellular release of calcium ions, which can be quantified by the resulting photoprotein luminescence).; type: functional, cell-based, CHO-K1
Sequence of Vasopressin V1a receptor (P37288 whole entry): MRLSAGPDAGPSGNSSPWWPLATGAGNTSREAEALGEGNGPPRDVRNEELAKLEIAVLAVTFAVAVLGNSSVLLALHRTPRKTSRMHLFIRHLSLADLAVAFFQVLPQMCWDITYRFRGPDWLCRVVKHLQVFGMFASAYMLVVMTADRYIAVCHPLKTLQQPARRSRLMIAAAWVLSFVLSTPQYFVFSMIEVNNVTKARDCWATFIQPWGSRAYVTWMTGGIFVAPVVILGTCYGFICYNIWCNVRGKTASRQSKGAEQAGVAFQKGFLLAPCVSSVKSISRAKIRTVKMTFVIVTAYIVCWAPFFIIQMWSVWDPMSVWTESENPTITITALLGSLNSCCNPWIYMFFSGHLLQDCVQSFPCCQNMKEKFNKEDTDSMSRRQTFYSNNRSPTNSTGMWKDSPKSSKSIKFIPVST

[11] = target: Melatonin receptor type 1A (Homo sapiens) (UniProt P48039); experiment: Inhibition of Melatonin MT1 at 10 µM in the Eurofins-Panlabs radioligand binding assay (Eurofins_assay_251600); parameters: ligand concentration 0.05 nM; conditions: Compound concentration 10.0 uM
Sequence of Melatonin receptor type 1A (Homo sapiens) (P48039 whole entry): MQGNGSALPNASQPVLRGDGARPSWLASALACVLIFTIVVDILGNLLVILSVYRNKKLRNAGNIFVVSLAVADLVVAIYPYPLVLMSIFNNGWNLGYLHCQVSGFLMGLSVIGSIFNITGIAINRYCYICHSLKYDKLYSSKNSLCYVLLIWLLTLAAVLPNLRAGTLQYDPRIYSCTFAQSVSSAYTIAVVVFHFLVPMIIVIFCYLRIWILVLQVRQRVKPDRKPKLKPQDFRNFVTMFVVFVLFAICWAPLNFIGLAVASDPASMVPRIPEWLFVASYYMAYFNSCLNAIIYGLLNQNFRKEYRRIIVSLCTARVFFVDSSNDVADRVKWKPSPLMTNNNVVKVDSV

[12] = target: Prostaglandin G/H synthase 1 (Homo sapiens) (UniProt P23219); experiment: Inhibition of Cyclooxygenase COX-1 at compound concentration of 10.0 uM in the Eurofins-Panlabs enzyme assay (Eurofins_assay_116020); conditions: Compound concentration 10.0 uM
[13] = target: C-C chemokine receptor type 2 (Homo sapiens) (UniProt P41597); experiment: Inhibition of Chemokine CCR2B at 10 µM in the Eurofins-Panlabs radioligand binding assay (Eurofins_assay_217550); conditions: Compound concentration 10.0 uM
[14] = target: Mitogen-activated protein kinase 14 (Homo sapiens) (UniProt Q16539); experiment: Inhibition of SAPK2a(h) at 10.0 µM in the Eurofins Kinase panel; conditions: Compound concentration 10.0 uM
[15] = target: Matrix metalloproteinase-9 (Homo sapiens) (UniProt P14780); experiment: Inhibition of Peptidase, Matrix Metalloproteinase-9 (MMP-9) at 10 µM in the Eurofins-Panlabs enzyme assay (Eurofins_assay_114910); parameters: substrate with concentration; conditions: Compound concentration 10.0 uM
Sequence of Matrix metalloproteinase-9 (Homo sapiens) (P14780 whole entry): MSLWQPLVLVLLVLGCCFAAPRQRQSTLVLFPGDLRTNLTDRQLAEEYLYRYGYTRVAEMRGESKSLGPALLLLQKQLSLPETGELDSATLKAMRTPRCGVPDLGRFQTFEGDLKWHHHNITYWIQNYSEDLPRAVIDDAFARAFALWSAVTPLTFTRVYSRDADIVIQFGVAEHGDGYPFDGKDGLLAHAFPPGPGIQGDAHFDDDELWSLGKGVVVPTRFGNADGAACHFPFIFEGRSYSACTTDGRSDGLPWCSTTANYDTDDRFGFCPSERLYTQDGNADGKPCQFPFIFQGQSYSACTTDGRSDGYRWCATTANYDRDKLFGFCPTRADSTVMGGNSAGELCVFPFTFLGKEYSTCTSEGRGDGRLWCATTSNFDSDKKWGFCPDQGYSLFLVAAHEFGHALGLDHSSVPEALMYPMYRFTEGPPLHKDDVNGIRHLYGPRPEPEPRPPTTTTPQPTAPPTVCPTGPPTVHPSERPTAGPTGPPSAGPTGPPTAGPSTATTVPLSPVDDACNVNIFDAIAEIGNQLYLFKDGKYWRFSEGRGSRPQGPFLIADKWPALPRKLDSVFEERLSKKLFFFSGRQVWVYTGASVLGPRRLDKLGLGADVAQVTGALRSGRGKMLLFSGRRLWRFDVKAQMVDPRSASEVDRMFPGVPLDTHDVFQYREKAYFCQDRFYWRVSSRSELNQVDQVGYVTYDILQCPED

[16] = target: ATP-sensitive inward rectifier potassium channel 11 (Cricetulus griseus) (UniProt A0A3L7HHE1); experiment: Inhibition of Potassium Channel [KATP] at 10 µM in the Eurofins-Panlabs radioligand binding assay (Eurofins_assay_265600); conditions: Cricetinae; Compound concentration 10.0 uM
[17] = target: Acetylcholinesterase (Homo sapiens) (UniProt P22303); conditions: Compound concentration 10.0 uM
Sequence of Acetylcholinesterase (Homo sapiens) (P22303 whole entry): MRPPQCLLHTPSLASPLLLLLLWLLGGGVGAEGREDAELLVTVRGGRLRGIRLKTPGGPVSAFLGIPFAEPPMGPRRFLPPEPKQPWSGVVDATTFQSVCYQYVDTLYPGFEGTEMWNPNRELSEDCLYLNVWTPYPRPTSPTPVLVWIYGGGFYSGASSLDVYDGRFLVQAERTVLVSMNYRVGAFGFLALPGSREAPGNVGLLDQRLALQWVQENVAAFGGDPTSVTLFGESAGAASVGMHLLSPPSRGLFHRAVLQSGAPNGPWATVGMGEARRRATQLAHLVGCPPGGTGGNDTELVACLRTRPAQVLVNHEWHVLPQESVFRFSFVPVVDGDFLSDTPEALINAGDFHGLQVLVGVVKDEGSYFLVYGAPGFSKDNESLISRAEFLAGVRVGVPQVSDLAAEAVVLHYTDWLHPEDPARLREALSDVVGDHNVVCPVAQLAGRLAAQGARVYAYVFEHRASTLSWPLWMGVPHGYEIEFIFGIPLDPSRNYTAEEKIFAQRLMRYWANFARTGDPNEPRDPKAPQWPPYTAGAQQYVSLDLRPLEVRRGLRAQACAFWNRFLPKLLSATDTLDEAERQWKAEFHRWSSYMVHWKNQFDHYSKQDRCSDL

[18] = target: Serine/threonine-protein kinase Chk2 (Homo sapiens) (UniProt O96017); experiment: Inhibition of CHK2(h) at 10.0 µM in the Eurofins Kinase panel; conditions: Compound concentration 10.0 uM
[19] = target: Glutamate receptor ionotropic, kainate (Rattus norvegicus) (UniProt P22756+Q01812+P42260+P42264+Q63273); experiment: Inhibition of Glutamate, Kainate at 10 µM in the Eurofins-Panlabs radioligand binding assay (Eurofins_assay_232700); conditions: Compound concentration 10.0 uM
[20] = target: cAMP-dependent protein kinase catalytic subunit beta (Homo sapiens) (UniProt P22694); experiment: Inhibition of PKACbeta(h) at 10.0 µM in the Eurofins Kinase panel; conditions: Compound concentration 10.0 uM
[21] = target: Serine/threonine-protein kinase Nek4 (Homo sapiens) (UniProt P51957); experiment: Inhibition of NEK4(h) at 10.0 µM in the Eurofins Kinase panel; conditions: Compound concentration 10.0 uM
Sequence of Serine/threonine-protein kinase Nek4 (Homo sapiens) (P51957 whole entry, looked up): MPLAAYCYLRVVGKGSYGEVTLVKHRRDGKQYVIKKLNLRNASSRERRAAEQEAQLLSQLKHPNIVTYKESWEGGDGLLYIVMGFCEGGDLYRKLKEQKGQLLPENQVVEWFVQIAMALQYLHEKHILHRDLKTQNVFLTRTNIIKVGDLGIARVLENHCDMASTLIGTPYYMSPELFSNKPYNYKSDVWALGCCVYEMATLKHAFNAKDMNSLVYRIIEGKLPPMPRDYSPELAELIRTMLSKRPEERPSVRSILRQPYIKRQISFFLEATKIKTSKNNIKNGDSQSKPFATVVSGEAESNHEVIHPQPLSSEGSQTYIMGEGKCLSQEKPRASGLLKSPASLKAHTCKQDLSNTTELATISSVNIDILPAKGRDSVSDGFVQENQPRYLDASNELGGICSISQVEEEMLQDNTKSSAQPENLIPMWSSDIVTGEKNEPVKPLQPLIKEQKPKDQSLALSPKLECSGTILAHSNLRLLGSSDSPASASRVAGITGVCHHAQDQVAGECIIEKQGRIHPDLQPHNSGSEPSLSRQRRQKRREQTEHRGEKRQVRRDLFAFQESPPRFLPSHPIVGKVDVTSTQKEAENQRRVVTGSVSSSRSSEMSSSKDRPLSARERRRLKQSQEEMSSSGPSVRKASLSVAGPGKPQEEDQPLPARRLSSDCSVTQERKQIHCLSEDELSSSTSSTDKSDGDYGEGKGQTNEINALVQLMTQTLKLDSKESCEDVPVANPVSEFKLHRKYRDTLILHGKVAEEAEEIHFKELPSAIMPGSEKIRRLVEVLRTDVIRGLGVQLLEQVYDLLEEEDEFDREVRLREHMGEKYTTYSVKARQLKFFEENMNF

[22] = target: Mitogen-activated protein kinase kinase kinase 20 (Homo sapiens) (UniProt Q9NYL2); experiment: Inhibition of ZAK(h) at 10.0 µM in the Eurofins Kinase panel; conditions: Compound concentration 10.0 uM
Sus scrofa = species on record: Sus scrofa; experiment: Inhibition of ATPase, Na+/K+, Heart at compound concentration of 10.0 uM in the Eurofins-Panlabs enzyme assay (Eurofins_assay_107710); parameters: substrate with concentration; conditions: Compound concentration 10.0 uM
[23] = target: T1, Muscarinic acetylcholine receptor M1 (Homo sapiens) (UniProt P11229); conditions: Compound concentration 10.0 uM
T1 sequence (whole entry): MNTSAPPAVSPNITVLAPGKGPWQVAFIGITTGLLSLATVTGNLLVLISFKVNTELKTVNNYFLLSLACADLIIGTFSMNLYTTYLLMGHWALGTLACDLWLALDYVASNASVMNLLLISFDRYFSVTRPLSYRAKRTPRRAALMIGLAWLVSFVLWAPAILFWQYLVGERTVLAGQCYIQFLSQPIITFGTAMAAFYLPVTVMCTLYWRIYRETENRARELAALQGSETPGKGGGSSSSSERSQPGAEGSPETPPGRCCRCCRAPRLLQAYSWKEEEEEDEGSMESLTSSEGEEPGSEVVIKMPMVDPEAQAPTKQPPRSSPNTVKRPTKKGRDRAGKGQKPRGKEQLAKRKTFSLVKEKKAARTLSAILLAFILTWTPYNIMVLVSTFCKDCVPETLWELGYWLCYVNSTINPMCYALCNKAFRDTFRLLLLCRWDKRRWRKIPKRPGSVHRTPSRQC

[24] = target: cGMP-specific 3',5'-cyclic phosphodiesterase (Homo sapiens) (UniProt O76074); conditions: Compound concentration 10.0 uM
[25] = target: Mitogen-activated protein kinase 3 (Homo sapiens) (UniProt P27361); experiment: Inhibition of Protein Serine/Threonine Kinase, MAPK3 (ERK1) at 10 µM in the Eurofins-Panlabs enzyme assay (Eurofins_assay_171000); conditions: Compound concentration 10.0 uM
[26] = target: Serine/threonine-protein kinase tousled-like 1 (Homo sapiens) (UniProt Q9UKI8); experiment: Inhibition of TLK1(h) at 10.0 µM in the Eurofins Kinase panel; conditions: Compound concentration 10.0 uM
[27] = target: Rho-associated protein kinase 2 (Homo sapiens) (UniProt O75116); experiment: Inhibition of ROCK-II(h) at 10.0 µM in the Eurofins Kinase panel; conditions: Compound concentration 10.0 uM

Sequence of Histamine H2 receptor (Homo sapiens) (P25021 whole entry): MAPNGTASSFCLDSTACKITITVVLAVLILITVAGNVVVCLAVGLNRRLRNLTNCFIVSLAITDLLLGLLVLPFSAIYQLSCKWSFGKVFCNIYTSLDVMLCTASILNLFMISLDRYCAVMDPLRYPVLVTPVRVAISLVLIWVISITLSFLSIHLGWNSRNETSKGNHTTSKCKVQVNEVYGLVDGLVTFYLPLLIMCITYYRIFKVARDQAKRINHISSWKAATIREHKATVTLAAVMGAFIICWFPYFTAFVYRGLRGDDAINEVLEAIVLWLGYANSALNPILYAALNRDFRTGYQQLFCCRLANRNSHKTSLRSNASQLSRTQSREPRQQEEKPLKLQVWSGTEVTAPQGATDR

Structure (SMILES): O=c1n(Cc2cncn2-c2cccc(Cl)c2)nc(-c2ccc(Cl)cc2)n1C[C@H](O)C(F)(F)F
- inhibition [1]: 20%
- inhibition [2]: -2.17%
- inhibition [3]: -4.72%
- inhibition [4]: -5.05%
- inhibition (Oryctolagus cuniculus): -5%
- inhibition (Vasopressin V2 receptor): 29%
- inhibition [5]: -0.03%
- inhibition [6]: -7.81%
- inhibition [7]: -7.62%
- inhibition [8]: -8.35%
- inhibition [9]: 2.09%
- inhibition [10]: 5.54%
- IC50 (Vasopressin V1a receptor): > 10 µM (not active)

Structure (SMILES): C[C@H](O)c1nc(Cn2nc(-c3ccc(Cl)cc3)n(C[C@H](O)C(F)(F)F)c2=O)nn1-c1cccc(Cl)c1 [PECAVAPTAN]
- inhibition [11]: -6%
- inhibition [12]: -3%
- inhibition [13]: 2%
- inhibition [14]: -8.61%
- inhibition [15]: -2%
- inhibition [16]: 18%
- inhibition [17]: 2%
- inhibition [18]: -8.52%
- inhibition [19]: -4%
- inhibition [20]: -5.07%
- inhibition [21]: 13.1%
- inhibition [22]: -4.87%
- inhibition (Sus scrofa): 0%
- inhibition [23]: 4.34%
- inhibition [24]: -10%
- inhibition [25]: -7%
- inhibition [26]: -3.06%
- inhibition [27]: 18.1%
